Results: PubChem BioAssay AID1963825 (Molecular Pharmacology Branch, DTP, NCI, 2024)

Assay: Anticancer human tumor 997537-175-T-J1-PDC patient-derived colon adenocarcinoma cell line growth inhibition [POLQ]
Settings: 997537-175-T-J1-PDC complex spheroid viability, combination with POLQ inhibitors; for IC50: curve of first compound; for viability, T/C: stronger effect = lower value; active = viability on the fitted dose curve at most 10% of control; inactive = the rest
Procedure, shortened: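 PDC + HUVEC + MSC complex spheroids; POLQ inhibitors ± partner drugs; top conc. at/near clinical Cmax, else 10 microM (SN-38 1 microM), half-log dilutions; 37 degrees C, 5% CO2.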

[1] = second compound 0.0316 µM, first compound 0.00316 µM
[2] = second compound 0.0316 µM, first compound 0.01 µM
[3] = second compound 0.0316 µM, first compound 0.0316 µM
[4] = second compound 0.0316 µM, first compound 0.1 µM
[5] = second compound 0.0316 µM, first compound 0.316 µM
[6] = second compound 0.0316 µM, first compound 1 µM
[7] = second compound 0.1 µM, first compound 0.00316 µM
[8] = second compound 0.1 µM, first compound 0.01 µM
[9] = second compound 0.1 µM, first compound 0.0316 µM
[10] = second compound 0.1 µM, first compound 0.1 µM
[11] = second compound 0.1 µM, first compound 0.316 µM
[12] = second compound 0.1 µM, first compound 1 µM
[13] = second compound 0.316 µM, first compound 0.00316 µM
[14] = second compound 0.316 µM, first compound 0.01 µM
[15] = second compound 0.316 µM, first compound 0.0316 µM
[16] = second compound 0.316 µM, first compound 0.1 µM
[17] = second compound 0.316 µM, first compound 0.316 µM
[18] = second compound 0.316 µM, first compound 1 µM
[19] = second compound 1 µM, first compound 0.00316 µM
[20] = second compound 1 µM, first compound 0.01 µM
[21] = second compound 1 µM, first compound 0.0316 µM
[22] = second compound 1 µM, first compound 0.1 µM
[23] = second compound 1 µM, first compound 0.316 µM
[24] = second compound 1 µM, first compound 1 µM
[25] = second compound 3.16 µM, first compound 0.00316 µM
[26] = second compound 3.16 µM, first compound 0.01 µM
[27] = second compound 3.16 µM, first compound 0.0316 µM
[28] = second compound 3.16 µM, first compound 0.1 µM
[29] = second compound 3.16 µM, first compound 0.316 µM
[30] = second compound 3.16 µM, first compound 1 µM
[31] = second compound 10 µM, first compound 0.00316 µM
[32] = second compound 10 µM, first compound 0.01 µM
[33] = second compound 10 µM, first compound 0.0316 µM
[34] = second compound 10 µM, first compound 0.1 µM
[35] = second compound 10 µM, first compound 0.316 µM
[36] = second compound 10 µM, first compound 1 µM
[37] = second compound 0.0316 µM, first compound 3.16 µM
[38] = second compound 0.0316 µM, first compound 10 µM
[39] = second compound 0.1 µM, first compound 3.16 µM
[40] = second compound 0.1 µM, first compound 10 µM
[41] = second compound 0.316 µM, first compound 3.16 µM
[42] = second compound 0.316 µM, first compound 10 µM
[43] = second compound 1 µM, first compound 3.16 µM
[44] = second compound 1 µM, first compound 10 µM
[45] = second compound 3.16 µM, first compound 3.16 µM
[46] = second compound 3.16 µM, first compound 10 µM
[47] = second compound 10 µM, first compound 3.16 µM
[48] = second compound 10 µM, first compound 10 µM
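Note: luminescence signal used as a surrogate for viable cells; spheroids exposed to drugs for seven days before readout.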

C=CCn1c(=O)c2cnc(Nc3ccc(N4CCN(C)CC4)cc3)nc2n1-c1cccc(C(C)(C)O)n1 + Nc1ccc(C#CCN(C(=O)Cc2ncc(C(F)(F)F)cc2C(F)(F)F)c2ccc(F)cc2)nn1
inactive: viability, T/C [1] 92.5% | viability, T/C [2] 99.7% | viability, T/C [3] 89.3% | viability, T/C [4] 97.9% | viability, T/C [5] 89.8% | viability, T/C [6] 50.6% | viability, T/C [7] 95.9% | viability, T/C [8] 96.8% | viability, T/C [9] 94.4% | viability, T/C [10] 95.1% | viability, T/C [11] 98.4% | viability, T/C [12] 73% | viability, T/C [13] 92.6% | viability, T/C [14] 97.3% | viability, T/C [15] 90.8% | viability, T/C [16] 82% | viability, T/C [17] 76.3% | viability, T/C [18] 55.1% | viability, T/C [19] 88.3% | viability, T/C [20] 104% | viability, T/C [21] 94.4% | viability, T/C [22] 84.5% | viability, T/C [23] 92.9% | viability, T/C [24] 62.2% | viability, T/C [25] 81.3% | viability, T/C [26] 93.7% | viability, T/C [27] 94.8% | viability, T/C [28] 94.3% | viability, T/C [29] 106% | viability, T/C [30] 55.1% | viability, T/C [31] 96.5% | viability, T/C [32] 85.5% | viability, T/C [33] 87.6% | viability, T/C [34] 80.9% | viability, T/C [35] 97.4% | viability, T/C [36] 72.9%
> 1000 nM: IC50 (second compound 0.0316 µM) | IC50 (second compound 0.1 µM) | IC50 (second compound 0.316 µM) | IC50 (second compound 1 µM) | IC50 (second compound 3.16 µM) | IC50 (second compound 10 µM)

COc1cccc(OCCCN)c1-c1cc(Nc2cnc(C#N)cn2)n[nH]1 + Nc1ccc(C#CCN(C(=O)Cc2ncc(C(F)(F)F)cc2C(F)(F)F)c2ccc(F)cc2)nn1
inactive: viability, T/C [1] 100% | viability, T/C [2] 90.2% | viability, T/C [3] 70.5% | viability, T/C [4] 42.3% | viability, T/C [5] 44% | viability, T/C [6] 17.7% | viability, T/C [7] 89.1% | viability, T/C [8] 96.8% | viability, T/C [9] 70.5% | viability, T/C [10] 43% | viability, T/C [11] 22.2% | viability, T/C [12] 23.2% | viability, T/C [13] 103% | viability, T/C [14] 89.5% | viability, T/C [15] 61.4% | viability, T/C [16] 40.5% | viability, T/C [17] 18% | viability, T/C [18] 41.9% | viability, T/C [19] 89.8% | viability, T/C [20] 61.1% | viability, T/C [21] 50.3% | viability, T/C [22] 21.8% | viability, T/C [23] 40.6% | viability, T/C [24] 36.2% | viability, T/C [25] 88.4% | viability, T/C [26] 90.8% | viability, T/C [27] 65.8% | viability, T/C [28] 24.2% | viability, T/C [29] 20.8% | viability, T/C [30] 21.1% | viability, T/C [31] 84% | viability, T/C [32] 85.1% | viability, T/C [33] 30.4% | viability, T/C [34] 24.9% | viability, T/C [35] 34.1% | viability, T/C [36] 20.5%
21.3 nM: IC50 (second compound 1 µM)
54.4 nM: IC50 (second compound 0.316 µM)
20.9 nM: IC50 (second compound 10 µM)
110 nM: IC50 (second compound 0.0316 µM)
72 nM: IC50 (second compound 0.1 µM)
48.8 nM: IC50 (second compound 3.16 µM)

COc1cccc2c1C(=O)c1c(O)c3c(c(O)c1C2=O)CC(O)(C(=O)CO)CC3OC1CC(N)C(O)C(C)O1 (stereo not drawn) + Cc1cccc(N(C)C(=O)C2C(O)CCN2c2nc(C)cc(C(F)(F)F)c2C#N)c1
active: viability, T/C [42] 9.08%
2650 nM: IC50 (second compound 0.0316 µM)
1540 nM: IC50 (second compound 1 µM)
1780 nM: IC50 (second compound 10 µM)
2390 nM: IC50 (second compound 0.1 µM)
inactive: viability, T/C [3] 81.4% | viability, T/C [4] 98.2% | viability, T/C [5] 104% | viability, T/C [6] 85.8% | viability, T/C [37] 43.6% | viability, T/C [38] 10.9% | viability, T/C [9] 101% | viability, T/C [10] 102% | viability, T/C [11] 113% | viability, T/C [12] 76.6% | viability, T/C [39] 42.2% | viability, T/C [40] 9.45% | viability, T/C [15] 99.3% | viability, T/C [16] 108% | viability, T/C [17] 116% | viability, T/C [18] 95.4% | viability, T/C [41] 63.4% | viability, T/C [21] 92.8% | viability, T/C [22] 111% | viability, T/C [23] 99.8% | viability, T/C [24] 63.7% | viability, T/C [43] 26.1% | viability, T/C [44] 9.7% | viability, T/C [27] 82.9% | viability, T/C [28] 115% | viability, T/C [29] 92.2% | viability, T/C [30] 97% | viability, T/C [45] 18.8% | viability, T/C [46] 10.2% | viability, T/C [33] 102% | viability, T/C [34] 104% | viability, T/C [35] 90.7% | viability, T/C [36] 56.2% | viability, T/C [47] 41.9% | viability, T/C [48] 9.99%
2000 nM: IC50 (second compound 3.16 µM)
4160 nM: IC50 (second compound 0.316 µM)

COc1cc(C2c3cc4c(cc3C(OC3OC5COC(C)OC5C(O)C3O)C3COC(=O)C23)OCO4)cc(OC)c1O (stereo not drawn) + COC1C(OC(N)=O)C(O)C(Oc2ccc3c(O)c(NC(=O)c4ccc(O)c(CC=C(C)C)c4)c(=O)oc3c2C)OC1(C)C
> 10000 nM: IC50 (second compound 0.0316 µM) | IC50 (second compound 0.1 µM) | IC50 (second compound 0.316 µM) | IC50 (second compound 1 µM) | IC50 (second compound 3.16 µM) | IC50 (second compound 10 µM)
inactive: viability, T/C [3] 99.8% | viability, T/C [4] 95% | viability, T/C [5] 93.1% | viability, T/C [6] 89.9% | viability, T/C [37] 74.7% | viability, T/C [38] 67.3% | viability, T/C [9] 103% | viability, T/C [10] 114% | viability, T/C [11] 99.3% | viability, T/C [12] 93.7% | viability, T/C [39] 60.2% | viability, T/C [40] 88.5% | viability, T/C [15] 97.3% | viability, T/C [16] 107% | viability, T/C [17] 99.2% | viability, T/C [18] 108% | viability, T/C [41] 92.3% | viability, T/C [42] 53.3% | viability, T/C [21] 93.5% | viability, T/C [22] 105% | viability, T/C [23] 110% | viability, T/C [24] 83.9% | viability, T/C [43] 88.8% | viability, T/C [44] 55.5% | viability, T/C [27] 109% | viability, T/C [28] 107% | viability, T/C [29] 87.7% | viability, T/C [30] 104% | viability, T/C [45] 63.5% | viability, T/C [46] 67.8% | viability, T/C [33] 106% | viability, T/C [34] 107% | viability, T/C [35] 108% | viability, T/C [36] 100% | viability, T/C [47] 84.9% | viability, T/C [48] 66.1%
